The values that follow come from patent US8846757B2, “Bioactive depside and anthocyanin compounds, compositions, and methods of use” (The Trustees of Columbia University in the City of New York, priority 2006, dated 2014).

Series [1] relates to IL-8 production in human small airway epithelial (SAE) cells. Kind of series: IL-8 immunoassay (ELISA) in SAE cells. Type of series: cell-based. As to conditions: compound 100 μM, 24 hours; for inhibition at 100 µM: Homo sapiens. How it is done: Human SAE cells were cultured according to supplier instructions (Clonetics, CA) and maintained in a controlled atmosphere of air-5% CO2 at 37° C. Confluent SAE cells at passages 4-8 were used for experiments.
Cigarette smoke extract (CSE) was prepared using a modified protocol (24). Briefly, a Barnet vacuum pump operating at constant flow was used to draw the smoke of one unfiltered 2R1 reference cigarette (University of Kentucky) through 25 mL of Dulbecco's phosphate-buffered saline. This solution (100% CSE) was adjusted to pH 7.4, filtered, diluted with small airway growth medium to a final concentration of 5%, and added to the cells immediately.
Cells were treated with 5% CSE or pure compounds (100 μM), or pretreated with pure compounds 30 minutes prior to 5% CSE exposure. After 24 hours measurement of human IL-8 in cell culture supemates was performed by ELISA (R&D Systems Inc., MN). Statistical analyses were performed by Student's t-test (two-sided) using the JMP Statistics software package (SAS Institute Inc., NC) and defined at the 5% level.
In general terms: An ELISA detects its analyte on a solid surface through an enzyme-linked reagent.

Series [2] relates to SW480 colon cancer cells. As to the kind of experiment: Cytotoxicity assay, SW480. It is filed as cell-based. Particulars: 72 hours, cell count.
Experimental: (§1) Colon cancer cell lines HT29, HCT116, and SW480 (10,000 cells) were plated into 24-well plates in Dulbecco's modified Eagle medium (DMEM) containing 10% fetal bovine serum (FBS). […] The plates were washed with PBS once and the attached cells were collected by tripsinization.
For series [3], the system named is HT29 colon cancer cells. As to the kind of experiment: Cytotoxicity assay, HT29. As to conditions: read-out: Cytotoxicity IC50 HT29.
Experimental: as §1
The subject of series [4] is HCT116 colon cancer cells. As to the kind of experiment: Cytotoxicity assay, HCT116. Particulars: read-out: Cytotoxicity IC50 HCT116.
Experimental: as §1
A short description of series [5]: DPPH assay (antiradical activity). Particulars: 400 μM DPPH. On the procedure:
The DPPH assay was performed on extracts, fractions, and purified compounds as previously described, using 400 μM DPPH (9).
The DPPH assay is an indication of the ability of a substance to scavenge free radicals. Gallic acid is know to be an effective free radical scavenger.

Series [6] deals with HT29 colon cancer cells.
Experimental: as §1
The test system of series [7] is HCT116 colon cancer cells.
Experimental: as §1
The test system of series [8] is HT29 colon cancer cells. Particulars: positive controls, refs (8, 19); cited from earlier work.
The mark [9] stands for this setting: pretreated 30 minutes prior to 5% CSE.

Like-named read-outs stand apart in the source and are kept apart here.

Consider catechin [reference compound], for which the “IL-8 inhibition in SAE cells, Untreated” value in series [1] (no CSE) is “No Change”. For the same molecule, the “IL-8 inhibition in SAE cells, Treated with 5% CSE” value (shortened to “IL-8 inhibition … with 5% CSE”) in series [1] (setting [9]) turned out to be 60.3%.

With `O=c1[nH]cc(F)c(=O)[nH]1` [Compound 5-FU, 5-fluorouracil, reference compound], the IC50 (in general, the concentration that inhibits the measured activity by half) amounted to 53 µM in series [2] (Homo sapiens, SW480); 46.1 µM in series [3] (Homo sapiens, HT-29, 72 h); 45.1 µM in series [4] (Homo sapiens, HCT-116, 72 h).

On to `O=C(O)Cc1c(O)cc(O)cc1OC(=O)c1ccc(O)c(O)c1` [Compound 2, 2-O-(3,4-dihydroxybenzoyl)-2,4,6-trihydroxyphenylacetic acid], for which the concentration for half-maximal inhibition (IC50) in series [5] is 61.8 µM; in series [6], over 100 µM; in series [7], 30 µM. Further, the “IL-8 inhibition in SAE cells, Untreated” value in series [1] (no CSE) is listed as 74.9%. For the same molecule, in series [1] (setting [9]), the “IL-8 inhibition … with 5% CSE” value was found to be 70.3%.

In series [5], `O=C(O)c1cc(O)c(O)c(O)c1` [Gallic acid, gallic acid, reference compound] came in with an IC50 of 30 ± 2.9 µM.

Regarding `O=C(O[C@@H]1Cc2c(O)cc(O)cc2O[C@@H]1c1cc(O)c(O)c(O)c1)c1cc(O)c(O)c(O)c1` [EGCG, epigallocatechin gallate], the “HT29 IC50” value in series [8] is 27 µg/mL.

In the case of `OC[C@H]1O[C@@H](Oc2cc3c(O)cc(O)cc3[o+]c2-c2cc(O)c(O)c(O)c2)[C@H](O)[C@@H](O)[C@@H]1O` [Compound 4, delphinidin 3-glucoside], the half-maximal inhibitory concentration (IC50) in series [5] was 26.3 µM; in series [2] it was 20 µM; in series [3] (72 hours, cell count), about 100 µM; in series [4] (72 hours, cell count) it was 12 µM. For the same molecule, the “IL-8 inhibition in SAE cells, Untreated” value in series [1] (no CSE, 100 µM) is on record as “Not Detected”. The “IL-8 inhibition … with 5% CSE” value in series [1] (setting [9]) was found to be 96.0%.

In the case of `COC(=O)Cc1c(O)cc(O)cc1OC(=O)c1ccc(O)c(O)c1` [Compound 1, methyl 2-[(3,4-dihydroxybenzoyloxy)-4,6-dihydroxyphenyl]acetate], the IC50 in series [5] was 51.4 µM; in series [3] (Homo sapiens, HT-29, 72 h), 65 µM; in series [4] (Homo sapiens, HCT-116, 72 h), over 100 µM. Besides, the inhibition – broadly, the change of the read-out against control, counted positive when it falls – at 100 µM stood at 81.3% in series [1] (no CSE, read-out: IL-8 inhibition in SAE cells, Untreated) and 47.3% in series [1] (pretreated 30 minutes prior to 5% CSE, read-out: IL-8 inhibition in SAE cells, Treated with 5% CSE).

With `OC[C@H]1O[C@@H](Oc2cc3c(O)cc(O)cc3[o+]c2-c2ccc(O)c(O)c2)[C@H](O)[C@@H](O)[C@@H]1O` [Compound 3, cyanidin 3-glucoside], the IC50 in series [5] is 28.4 µM; in series [2] it was 90 to 100 µM; in series [3] (72 hours, cell count) it was about 100 µM; in series [4] (72 hours, cell count), about 70 µM. The “IL-8 inhibition in SAE cells, Untreated” value in series [1] (no CSE) is on record as 65.3%. Besides, the “IL-8 inhibition … with 5% CSE” value in series [1] (setting [9]) is 36.4%.
